Experimental data: ChEMBL document CHEMBL1148874, “Design, synthesis, and anti-HIV activity of 2',3'-didehydro-2',3'-dideoxyuridine (d4U), 2',3'-dideoxyuridine (ddU) phosphoramidate 'ProTide' derivatives” (Bioorg Med Chem Lett, 2007)

What was measured:
[1] = system: Human immunodeficiency virus 2; assay: Inhibition of HIV2-induced cytopathogenicity in CEM/0 cells; type: functional, organism-based; conditions: Human immunodeficiency virus 2, CCRF-CEM
[2] = system: Human immunodeficiency virus 1; assay: Inhibition of HIV1-induced cytopathogenicity in CEM/0 cells; type: functional, organism-based; conditions: Human immunodeficiency virus 1, CCRF-CEM
[3] = Cytotoxicity against CEM/0 cells; type: cell-based, CCRF-CEM; conditions: human

Row | Compound | EC50 [1] | EC50 [2] | CC50 [3]
1 | CCOC(=O)[C@@H](C)NP(=O)(OC[C@@H]1CC[C@H](n2ccc(=O)[nH]c2=O)O1)Oc1ccccc1 (some centres not stated) | 93.3 µM | 43.3 µM | > 250 µM
2 | CCOC(=O)[C@@H](C)NP(=O)(OC[C@@H]1C=C[C@H](n2ccc(=O)[nH]c2=O)O1)Oc1ccccc1 (some centres not stated) | > 50 µM | > 50 µM | 212 µM
3 | C[C@@H](NP(=O)(OC[C@@H]1C=C[C@H](n2ccc(=O)[nH]c2=O)O1)Oc1cccc2ccccc12)C(=O)OCc1ccccc1 (some centres not stated) | 25 µM | 25 µM | 100 µM
4 | COC(=O)[C@@H](C)NP(=O)(OC[C@@H]1CC[C@H](n2ccc(=O)[nH]c2=O)O1)Oc1ccccc1 (some centres not stated) | ≥ 50 µM | 36.7 µM | 121 µM
5 | C[C@@H](NP(=O)(OC[C@@H]1C=C[C@H](n2ccc(=O)[nH]c2=O)O1)Oc1ccccc1)C(=O)OC(C)(C)C (some centres not stated) | > 250 µM | > 250 µM | > 250 µM
6 | C[C@@H](NP(=O)(OC[C@@H]1CC[C@H](n2ccc(=O)[nH]c2=O)O1)Oc1ccccc1)C(=O)OC(C)(C)C (some centres not stated) | > 250 µM | > 250 µM | > 250 µM
7 | C[C@@H](NP(=O)(OC[C@@H]1CC[C@H](n2ccc(=O)[nH]c2=O)O1)Oc1cccc2ccccc12)C(=O)OCc1ccccc1 (some centres not stated) | 20 µM | 15 µM | 96.9 µM
8 | COC(=O)[C@@H](C)NP(=O)(OC[C@@H]1C=C[C@H](n2ccc(=O)[nH]c2=O)O1)Oc1ccccc1 (some centres not stated) | > 10 µM | > 50 µM | 96.6 µM

The next lines start with results.

Row | EC50 [1] | EC50 [2] | Compound | CC50 [3]
9 | > 250 µM | > 250 µM | O=c1ccn([C@H]2CC[C@@H](CO)O2)c(=O)[nH]1 | > 250 µM
10 | 0.77 µM | – | Cc1cn([C@H]2C=C[C@@H](CO)O2)c(=O)[nH]c1=O [STAVUDINE] | 174 µM
11 | > 50 µM | > 50 µM | O=c1ccn([C@H]2C=C[C@@H](CO)O2)c(=O)[nH]1 | 207 µM
